Laboratory results from ChEMBL document CHEMBL3091342, “Preparation, in vitro evaluation and molecular modelling of pyridinium-quinolinium/isoquinolinium non-symmetrical bisquaternary cholinesterase inhibitors” (Bioorg Med Chem Lett, 2013).

Columns and labels:
Cholinesterase = Cholinesterase (Homo sapiens, UniProt P06276); test: Inhibition of human plasmatic BChE after 5 mins by Ellman's method; parameters: species or system Plasma
Acetylcholinesterase [1] = target: T1, Acetylcholinesterase (Homo sapiens, UniProt P22303); test: Inhibition of human recombinant AChE after 5 mins by Ellman's method
T1 sequence (P22303 whole entry): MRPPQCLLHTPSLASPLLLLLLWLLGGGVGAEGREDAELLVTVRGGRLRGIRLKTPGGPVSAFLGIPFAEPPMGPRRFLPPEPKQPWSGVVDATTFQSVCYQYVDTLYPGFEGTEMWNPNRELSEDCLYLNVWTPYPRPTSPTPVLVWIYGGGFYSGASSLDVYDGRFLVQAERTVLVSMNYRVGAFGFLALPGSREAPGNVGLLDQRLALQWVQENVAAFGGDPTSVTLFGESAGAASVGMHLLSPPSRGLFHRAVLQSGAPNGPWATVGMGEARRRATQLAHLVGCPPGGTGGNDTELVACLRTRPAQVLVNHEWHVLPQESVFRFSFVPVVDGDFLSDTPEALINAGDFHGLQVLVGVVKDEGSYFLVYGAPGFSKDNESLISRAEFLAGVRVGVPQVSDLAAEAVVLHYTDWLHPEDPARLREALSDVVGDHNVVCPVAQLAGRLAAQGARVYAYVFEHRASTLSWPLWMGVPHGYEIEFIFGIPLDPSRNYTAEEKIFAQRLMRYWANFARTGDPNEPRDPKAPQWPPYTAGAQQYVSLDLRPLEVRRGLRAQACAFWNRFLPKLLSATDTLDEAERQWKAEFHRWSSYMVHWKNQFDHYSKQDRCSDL

Acetylcholinesterase [2] = target: T1, Acetylcholinesterase; test: Inhibition of human recombinant AChE by Lineweaver-Burk plot analysis
Acetylcholinesterase [3] = target: T1, Acetylcholinesterase; test: Non competitive inhibition of human recombinant AChE using ATChCl as substrate by Lineweaver-Burk plot analysis

Sequence of Cholinesterase (P06276 whole entry): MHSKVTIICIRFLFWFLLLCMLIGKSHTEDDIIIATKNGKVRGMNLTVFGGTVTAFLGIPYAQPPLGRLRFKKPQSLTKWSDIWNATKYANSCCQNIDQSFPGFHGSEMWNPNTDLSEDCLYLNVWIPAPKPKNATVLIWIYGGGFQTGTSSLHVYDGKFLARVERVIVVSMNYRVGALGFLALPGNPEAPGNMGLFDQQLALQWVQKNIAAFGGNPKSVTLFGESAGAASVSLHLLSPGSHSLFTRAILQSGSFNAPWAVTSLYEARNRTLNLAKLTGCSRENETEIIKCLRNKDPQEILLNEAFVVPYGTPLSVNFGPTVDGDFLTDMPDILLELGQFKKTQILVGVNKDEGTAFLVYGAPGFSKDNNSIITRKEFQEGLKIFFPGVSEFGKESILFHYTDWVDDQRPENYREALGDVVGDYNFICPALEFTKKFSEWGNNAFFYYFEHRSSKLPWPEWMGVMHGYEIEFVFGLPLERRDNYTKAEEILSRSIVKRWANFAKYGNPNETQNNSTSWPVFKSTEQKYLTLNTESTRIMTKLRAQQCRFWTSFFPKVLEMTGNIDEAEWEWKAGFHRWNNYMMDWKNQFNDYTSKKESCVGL

c1cc[n+](CCCCCCCCCCC[n+]2ccc3ccccc3c2)cc1
IC50 (Cholinesterase): 700 nM
IC50 (Acetylcholinesterase [1]): 30 nM

c1cc[n+](CCCCCCCC[n+]2ccc3ccccc3c2)cc1
IC50 (Cholinesterase): 7700 nM
IC50 (Acetylcholinesterase [1]): 140 nM

c1cc[n+](CCCCCCCCCCCC[n+]2cccc3ccccc32)cc1
Ki (Acetylcholinesterase [2]): 20 nM
Ki (Acetylcholinesterase [3]): 10 nM
IC50 (Cholinesterase): 680 nM
IC50 (Acetylcholinesterase [1]): 4.7 nM

c1cc[n+](CCCCCCC[n+]2cccc3ccccc32)cc1
IC50 (Cholinesterase): 2200 nM
IC50 (Acetylcholinesterase [1]): 540 nM

c1cc[n+](CCCCCCC[n+]2ccc3ccccc3c2)cc1
IC50 (Cholinesterase): 1000 nM
IC50 (Acetylcholinesterase [1]): 800 nM

c1cc[n+](CCCCCCCCCCC[n+]2cccc3ccccc32)cc1
IC50 (Cholinesterase): 900 nM
IC50 (Acetylcholinesterase [1]): 17 nM

c1cc[n+](CCCCCCCC[n+]2cccc3ccccc32)cc1
IC50 (Cholinesterase): 2000 nM
IC50 (Acetylcholinesterase [1]): 270 nM

c1cc[n+](CCCCCCCCC[n+]2cccc3ccccc32)cc1
IC50 (Cholinesterase): 1700 nM
IC50 (Acetylcholinesterase [1]): 120 nM

c1cc[n+](CCCCCCCCC[n+]2ccc3ccccc3c2)cc1
IC50 (Cholinesterase): 350 nM
IC50 (Acetylcholinesterase [1]): 40 nM

c1cc[n+](CCCCCCCCCC[n+]2ccc3ccccc3c2)cc1
IC50 (Cholinesterase): 370 nM
IC50 (Acetylcholinesterase [1]): 20 nM
